Measured values from BigSolDB 2.1.

O=C(c1ccc(F)cc1)c1ccc(F)cc1
solubility (mole fraction)
Settings	in acetone	in acetonitrile	in ethanol	in ethyl acetate	in isobutanol	in isopropanol	in methanol	in methyl acetate	in n-butanol	in n-propanol
293.15 K	0.0915	0.03	0.0084	0.101	0.0097	0.0079	0.0062	0.0956	0.011	0.0103
298.15 K	0.107	0.0386	0.0104	0.117	0.0125	0.0101	0.0076	0.112	0.014	0.0127
303.15 K	0.126	0.0491	0.0129	0.134	0.0158	0.0131	0.0093	0.131	0.0177	0.0159
308.15 K	0.147	0.0631	0.016	0.155	0.02	0.017	0.0114	0.152	0.0225	0.0197
313.15 K	0.172	0.08	0.0197	0.177	0.0255	0.0217	0.0138	0.177	0.0282	0.0246
318.15 K	0.199	0.101	0.0242	0.203	0.0322	0.0276	0.0168	0.205	0.0354	0.0305
323.15 K	0.231	0.126	0.0297	0.231	0.0407	0.0352	0.0204	0.238	0.0444	0.0378
328.15 K	0.266	0.158	0.0364	0.264	0.0511	0.0445	0.0245	0.274	0.0555	0.0467
333.15 K	0.308	0.197	0.0447	0.299	0.0643	0.056	0.0297	0.316	0.0691	0.0576
